Results taken from US6699676B1, “Uses of ouabain and ouabain-like molecules in apoptosis related pathologies” (Corporation du Centre de Recherche du Centre, Hospitalier …, priority 1999, dated 2004).

Experiments:
[1] = tested on: caspase-3; experiment: Caspase-3 activity in treated VSMC-E1A; type: cell-based, rat
Experimental: (§1) FIG. 5. Effect of ouabain on caspase-3 activity in VSMC-E1A (A) and Jurkat cells (B). VSMC-E1A and Jurkat cells were pretreated with 1 mM ouabain for 1 and 2 hours, respectively, and the additions indicated below the bars were delivered in media with 10% calf serum and with the baseline (137/5) or inverse (14/128) [Na^+]o/[K^+]o ratio for 6 (VSMC-E1A) or 3 hours (Jurkat cells). In experiments with VSMC-E1A, calf serum (CS) was omitted where indicated (−). Abbreviations: staur.—staurosporine (0.25 μM), ok.ac.—okadaic acid (1 μM), mann.—mannitol (350 mM); Fas-L—Fas ligand (100 ng/ml). Mean values±S.E. obtained in experiments performed in quadruplicate (A) or triplicate (B) are given. ★p<0.001 compared to ouabain-untreated cells.
(§2) Caspase activity. VSMC-E1A seeded in 20 cm^2 flasks and treated as indicated in FIG. 5 were scratched, transferred to centrifuge tubes, washed twice with PBS and lysed in 0.5 ml of buffer A contaming 50 mM tris-HCl (pH 7.4), 5 mM MgCl2, 1 mM EGTA and 0.1% CHAPS. Then, 50-100 μl of cell lysate was mixed with 600 μl of buffer A containing 1 mM dithiothreitol, 40 μM YVAD-AMC or DEVD-AMC with or without 1 μM of caspase-1 and capspase-3 inhibitors (Ac-YVAD-CHO and Ac-DEVD-CHO, respectively), incubated for 2 hours at 37° C. and diluted 15-fold with 80 mM glycine-NaOH buffer (pH 10). Fluorescence of the samples was measured at ex=365 run and em=465 run and calibrated with AMC in the range of 10 to 100 nM. To measure caspase activity in control and ouabain-treated Jurkat cells, 5 ml of suspension containing ˜2×10^7 cells was transferred onto ice and sedimented. The pellet of cells was washed and treated with 0.3 ml of medium A in the same way as VSMC. Protein content was estimated by Bradford methods.

[2] = tested on: caspase-3; experiment: Caspase-3 activity in treated Jurkat cells; type: cell-based, human; details: for increase of caspase-3 activity: 3 hours, Fas ligand 100 ng/ml, staurosporine 0.25 μM, mannitol 350 mM
Experimental: as §1, §2

[3] = tested on: Jurkat cells; experiment: Chromatin cleavage assay in Jurkat cells; type: cell-based, human; details: for Chromatin fragments (%): 1 mM, 2 hours + 7 hours; for content of chromatin fragments: 3 hours, 0.25 μM staurosporine or 350 mM mannitol (from 2.6±1.2)
Experimental: FIG. 4. Effect of ouabain on chromatin cleavage in Jurkat cells. (A) Kinetics of accumulation of chromatin fragments in control (curves 1, 3) and ouabain-treated (curves 2, 4) cells in the absence (curves 1, 2) or presence (curves 3, 4) of 100 ng/ml of anti-human Fas (mouse monoclonal IgM, Upstate Biotechnology, Lake Placid, N.Y.); (B) Content of chromatin fragments in Jurkat cells subjected to 3 hours of incubation with or without 1 mM ouabain, 0.25 μM staurosporine and 350 mM mannitol. In both experiments, ouabain was added 2 hours before triggering of apoptosis. Mean values±S.E. obtained in experiments performed in triplicate are given.
To estimate chromatin cleavage, cells were incubated for 2 hours in the presence of 10% calf serum in the control solution (DMEM, [Na^+]=137 mM; [K^+]=5 mM—line 1) or under equimolar substitution of NaCl with KCl ([Na^+]=14 mM; [K^+]=128 mM—line 2) with or without 1 mM ouabain and then for an additional 7 hours at the same media with or without 100 ng/ml Fas ligand (Fas-L). Intracellular Na^+ and K^+ content was measured as steady-state distribution of isotopes after 24 hours preincubation of cells in control Na^+-enriched solution containing 0.5 μCi/ml ^86Rb or 2 μCi/ml ^22Na, and an additional 6 hours incubation in Na^+—(line 1) or K^+—(line 2) enriched medium containing 10% calf serum, isotopes with the same specific activity with or without 1 mM ouabain. For more details see Experimental Procedures. Mean values±S.E. obtained in experiments performed in triplicate are given. ★, #p<0.01 and 0.001 compared to ouabain-untreated cells.
Cells. VSMC were obtained by explant methods from aortas of 10- to 13-week-old male rats as described previously (17), cultured in DMEM with 10% calf serum, 100 U/ml penicillin, 100 µg/ml streptomycin and used between 10 to 16 passages. Cells transfected with c-myc (VSMC-MYC) and E1A-adenovirus (VSMC-E1A) were obtained in accordance with a previously-described protocol (18,19) and were cultured in the same medium with the addition of 500 µg/ml genticin. Jurkat cells were obtained from the American Type Culture Collection and cultured in RPMI 1640 medium supplied with 10% calf serum, antibiotics, sodium pyruvate, glutamate and β-mercaptoethanol.
Chromatin cleavage assay. Chromatin cleavage in VSMC was estimated by a technique described previously in detail (10). Briefly, VSMC grown in 24-well dishes were labeled for 24 hours in serum-supplied DMEM with [^3H]-thymidine (1 μCi/ml), washed with 2×2 ml of DMEM and incubated in serum-supplied DMEM. In 48 hr, the cells were pretreated with ouabain or K^+-depleted medium as indicated in FIG. 2 and Table 3, washed twice with serum-containing medium and incubated with 0.5 ml of medium with or without ouabain and containing different inducers of apoptosis. To measure the content of chromatin fragments, the cells were transferred on ice and 1 ml of ice-cold lysed buffer (10 mM EDTA, 10 mM tris-HCl, 0.5% triton X100 (pH 8.0)) was added. After 15 min, the cell lysate was transferred to Ependorf tubes, sedimented (12,000 rpm, 10 mm), and 1 ml of supernatant was transferred for the measurement of radioactivity (A1t). The remaining radioactivity from pellets and wells was extracted with 0.5 ml of 1% SDS/4 mM EDTA mixture, combined and counted (A2). Chromatin cleavage was quantified as the content of chromatin fragments normalized by total content of [^3H]-labeled DNA in accordance with the equation [1.5×(A1t−A1o)/(A2+A1t−1.5A1o)]×100% where A1o is the value of A1t before induction of apoptosis. To measure chromatin fragmentation in [^3H]-thymidine-labeled Jurkat cells, they were resuspended at a density of 10^6 cells/ml in medium containing 10% calf serum and the additions indicated in FIG. 4 and Table 4. At the time intervals shown in FIG. 4, 100 μl of cell suspension was mixed with 100 μl of PBS contairung 0.5% triton X100, and the content of chromatin fragments was measured as described previously in detail (20).

C[C@@H]1O[C@@H](O[C@H]2C[C@@H](O)[C@]3(CO)[C@H]4[C@H](O)C[C@]5(C)[C@@H](C6=CC(=O)OC6)CC[C@]5(O)[C@@H]4CC[C@]3(O)C2)[C@H](O)[C@H](O)[C@H]1O [Ouabain, 1β,3β,5,11α,14,19-hexahydroxycard 20 [22]-enolide 3-[6-deoxy-α-L-mannopyrano-sidel]]
increment of caspase-3 activity under induction of apoptosis ([1]; 1 mM ouabain, control medium): abolished the increment of caspase-3 activity
caspase-3 activity in apoptosis triggered by okadaic acid ([1]; ouabain, K+-enriched, Na+-depleted medium ([Na+]o/[K+]o=14/128)): did not observe any effect
baseline activity of caspase-3 ([1]; pretreatment 1 hour with 1 mM ouabain (from 560±41)): 101±39 pmol (mg prot)^−1 hr^−1
increment of caspase-3 activity triggered by Fas ligand, staurosporine and hyperosmotic shrinkage ([2]; ouabain): Neither ouabain nor equimolar substitution of Na^+ by K^+ in the incubation medium affected the increment of caspase-3 activity
baseline caspase-3 activity ([2]; pretreatment 2 hours with 1 mM ouabain (from 296±38)): 497±67 pmol (mg prot)^−1 hr^−1
chromatin cleavage in the absence of triggers of apoptosis ([3]; Jurkat cells, 2 hours ouabain pretreatment, subsequent 3 hours): did not significantly modify chromatin cleavage
increment of chromatin cleavage triggered by Fas ligand, staurosporine or mannitol ([3]; Jurkat cells, ouabain, 3 hours treatment with trigger): did not observe any effect
Chromatin fragments (%) ([3]; ouabain-treated Jurkat cells, +Fas-L 100 ng/ml, medium [Na+]o=14, [K+]o=128 mM): 22.7%
Chromatin fragments (%) ([3]; ouabain-treated Jurkat cells, +Fas-L 100 ng/ml, medium [Na+]o=137, [K+]o=5 mM): 42.7%
Chromatin fragments (%) ([3]; ouabain-treated Jurkat cells, no Fas-L, medium [Na+]o=14, [K+]o=128 mM): 5.7%
Chromatin fragments (%) ([3]; ouabain-treated Jurkat cells, no Fas-L, medium [Na+]o=14, [K+]o=128 mM, listed as ouabain): 5.7±2.0%
Chromatin fragments (%) ([3]; ouabain-treated Jurkat cells, no Fas-L, medium [Na+]o=137, [K+]o=5 mM): 16.0%
Chromatin fragments (%) ([3]; ouabain-treated Jurkat cells, no Fas-L, medium [Na+]o=137, [K+]o=5 mM, listed as ouabain): 16.0±4.6%
increment of the content of chromatin fragments triggered by Fas ligand ([3]; ouabain-treated Jurkat cells, 7-hr incubation): 26.2±4.7%

OC[C@@H](O)[C@@H](O)[C@H](O)[C@H](O)CO [mannitol]
caspase-3 activity under mannitol-induced cell shrinkage ([1]; 350 mM mannitol, 6 hours): insensitive to mannitol-induced cell shrinkage
increase of caspase-3 activity [2]: ~10 fold
content of chromatin fragments ([3]; Jurkat cells): 15.6±2.9%

CN[C@@H]1C[C@H]2O[C@@](C)([C@@H]1OC)n1c3ccccc3c3c4c(c5c6ccccc6n2c5c31)C(=O)NC4 [staurosporine]
increase of caspase-3 activity ([1]; 6 hours, staurosporine 0.25 μM, okadaic acid 1 μM): 8 fold
increase of caspase-3 activity [2]: ~20 fold
content of chromatin fragments ([3]; Jurkat cells): 19.7±4.3%
